Reference: ChEMBL document CHEMBL1944604, “Aminopurine based JNK inhibitors for the prevention of ischemia reperfusion injury” (Bioorg Med Chem Lett, 2012)
Values after ≈ are worked out from the molar mass of the structure shown.

What was measured:
[1] = Metabolic stability of the compound in rat liver microsomes assessed as compound remaining at 3 uM after 30 mins; assay type: ADME, Microsome; details: read-out: Stability
[2] = Metabolic stability of the compound in mouse liver microsomes assessed as compound remaining at 3 uM after 30 mins; assay type: ADME, Microsome; details: read-out: Stability
[3] = Metabolic stability of the compound in dog liver microsomes assessed as compound remaining at 3 uM after 30 mins; assay type: ADME, Canis lupus familiaris, Microsome; details: read-out: Stability
[4] = Metabolic stability of the compound in monkey liver microsomes assessed as compound remaining at 3 uM after 30 mins; assay type: ADME, Macaca mulatta, Microsome; details: rhesus monkey, read-out: Stability
[5] = Metabolic stability of the compound in human liver microsomes assessed as compound remaining at 3 uM after 30 mins; assay type: ADME, Microsome; details: read-out: Stability
[6] = Thermodynamic solubility of the compound at pH 5; assay type: physicochemical; details: buffer, read-out: Therm_solubility
Cytochrome P450 3A4 [7] = molecular target: T1, Cytochrome P450 3A4 (Homo sapiens, UniProt P08684); assay: Inhibition of recombinant CYP3A4 up to 30 uM; assay type: ADME; details: recombinant enzyme
[8] = molecular target: c-Jun N-terminal kinase, JNK (Homo sapiens, UniProt P45983+P53779+P45984); assay: Inhibition of JNK-mediated cJun phosphorylation in human Jurkat T cells by Western blotting; assay type: cell-based
[9] = molecular target: Mitogen-activated protein kinase 8 (Homo sapiens, UniProt P45983); assay: Inhibition of full length Hexa-His-tagged JNK1 using GST-tagged cJun and [gamma33P]ATP as substrate after 60 mins by scintillation counting
[10] = molecular target: Mitogen-activated protein kinase 9 (Homo sapiens, UniProt P45984); assay: Inhibition of full length Hexa-His-tagged JNK2 using GST-tagged cJun and [gamma33P]ATP as substrate after 60 mins by scintillation counting
[11] = molecular target: Mitogen-activated protein kinase 10 (Homo sapiens, UniProt P53779); assay: Inhibition of full length Hexa-His-tagged JNK3 using GST-tagged cJun and [gamma33P]ATP as substrate after 60 mins by scintillation counting
[12] = molecular target: Mitogen-activated protein kinase 14 (Homo sapiens, UniProt Q16539); assay: Inhibition of p38alpha using MBP and [gamma33P]ATP as substrate after 60 mins by scintillation counting
[13] = Volume of distribution at steady state in rat at 2 to 10 mg/kg, iv; assay type: ADME, organism-based; set-up: dose 2-10 mg/kg, route intravenous; details: in vivo, read-out: Vdss
Rattus norvegicus [14] = assay: Antiinflammatory activity in po dosed CD rat whole blood assessed as inhibition of LPS-induced TNFalpha production administered 1 hr before LPS challenge measured by […]; assay type: functional, organism-based
Mus musculus [15] = assay: Hepatoprotective activity in BALB/c mouse assessed as inhibition of concanavalin A-induced ALT elevation at 30 mg/kg, ip administered 1 hr prior Con A challenge; assay type: functional; details: route intraperitoneal
Mus musculus [16] = assay: Hepatoprotective activity in BALB/c mouse assessed as inhibition of concanavalin A-induced ALT elevation at 60 mg/kg, ip administered 1 hr prior Con A challenge; assay type: functional; details: route intraperitoneal
Rattus norvegicus [17] = assay: Antiischemic activity in Lewis rat ischemia reperfusion model assessed as increase in survival rate at 3 mg/kg, iv bolus administered 15 mins before ischemia challenge relative to control; assay type: functional
[18] = Half life in rat at 2 to 10 mg/kg, iv bolus; assay type: ADME, organism-based; set-up: dose 2-10 mg/kg, route intravenous; details: in vivo
[19] = Clearance in rat at 10 mg/kg, iv infusion; assay type: ADME, organism-based; set-up: dose 10 mg/kg, route intravenous; details: in vivo
[20] = Volume of distribution at steady state in rat at 10 mg/kg, iv infusion; assay type: ADME, organism-based; set-up: dose 10 mg/kg, route intravenous; details: in vivo, read-out: Vdss
[21] = AUC in rat at 10 mg/kg, iv infusion; assay type: ADME, organism-based; set-up: dose 10 mg/kg, route intravenous; details: plasma
[22] = Half life in rat at 10 mg/kg, iv infusion; assay type: ADME, organism-based; set-up: dose 10 mg/kg, route intravenous; details: in vivo
[23] = Clearance in dog at 1 mg/kg, iv bolus; assay type: ADME, organism-based, Canis lupus familiaris; set-up: dose 1 mg/kg, route intravenous; details: in vivo
[24] = Volume of distribution at steady state in dog at 1 mg/kg, iv bolus; assay type: ADME, organism-based, Canis lupus familiaris; set-up: dose 1 mg/kg, route intravenous; details: in vivo, read-out: Vdss
[25] = AUC in dog at 1 mg/kg, iv bolus; assay type: ADME, organism-based, Canis lupus familiaris; set-up: dose 1 mg/kg, route intravenous; details: plasma
[26] = Volume of distribution at steady state in cynomolgus monkey at 1 mg/kg, iv bolus; assay type: ADME, organism-based, Macaca fascicularis; set-up: dose 1 mg/kg, route intravenous; details: in vivo, read-out: Vdss
[27] = AUC in cynomolgus monkey at 1 mg/kg, iv bolus; assay type: ADME, organism-based, Macaca fascicularis; set-up: dose 1 mg/kg, route intravenous; details: plasma
[28] = Half life in cynomolgus monkey at 1 mg/kg, iv bolus; assay type: ADME, organism-based, Macaca fascicularis; set-up: dose 1 mg/kg, route intravenous; details: in vivo
[29] = Mean residence time in cynomolgus monkey at 1 mg/kg, iv bolus; assay type: ADME, organism-based, Macaca fascicularis; set-up: dose 1 mg/kg, route intravenous; details: in vivo
Cytochrome P450 1A2 = molecular target: T2, Cytochrome P450 1A2 (Homo sapiens, UniProt P05177); assay: Inhibition of recombinant CYP1A2 up to 30 uM; assay type: ADME; details: recombinant enzyme
T2 sequence (P05177 whole entry): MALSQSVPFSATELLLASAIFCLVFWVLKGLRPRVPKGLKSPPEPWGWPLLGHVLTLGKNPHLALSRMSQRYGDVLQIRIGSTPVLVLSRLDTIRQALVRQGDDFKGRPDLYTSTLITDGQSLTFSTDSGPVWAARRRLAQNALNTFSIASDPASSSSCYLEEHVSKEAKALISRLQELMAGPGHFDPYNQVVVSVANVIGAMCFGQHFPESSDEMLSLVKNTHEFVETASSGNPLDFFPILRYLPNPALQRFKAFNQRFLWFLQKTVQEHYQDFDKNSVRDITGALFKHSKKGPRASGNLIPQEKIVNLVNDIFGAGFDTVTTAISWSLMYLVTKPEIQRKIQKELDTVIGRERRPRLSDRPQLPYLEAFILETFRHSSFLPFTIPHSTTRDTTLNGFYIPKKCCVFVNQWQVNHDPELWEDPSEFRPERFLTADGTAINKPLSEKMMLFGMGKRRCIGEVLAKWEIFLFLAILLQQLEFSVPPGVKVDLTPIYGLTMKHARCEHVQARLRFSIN

Cytochrome P450 2C9 = Cytochrome P450 2C9 (Homo sapiens, UniProt P11712); assay: Inhibition of recombinant CYP2C9 up to 30 uM; assay type: ADME; details: recombinant enzyme
Cytochrome P450 2C19 = Cytochrome P450 2C19 (Homo sapiens, UniProt P33261); assay: Inhibition of recombinant CYP2C19 up to 30 uM; assay type: ADME; details: recombinant enzyme
Cytochrome P450 3A4 [30] = molecular target: T1, Cytochrome P450 3A4; assay: Inhibition of CYP3A4 in human liver microsomes up to 30 uM; assay type: ADME, Microsome
CYP3A4 = CYP3A4 (Homo sapiens, UniProt P08684); assay: Drug metabolism assessed as CYP3A4-mediated compound loss after 30 mins; assay type: ADME; details: recombinant enzyme; read-out: Drug metabolism
CYP2D6 = CYP2D6 (Homo sapiens, UniProt P10635); assay: Drug metabolism assessed as CYP2D6-mediated compound loss after 30 mins; assay type: ADME; details: recombinant enzyme; read-out: Drug metabolism
Hepatocyte [31] = assay: Drug metabolism in rat hepatocytes after 60 mins; assay type: ADME, cell-based; details: 1 h
Hepatocyte [32] = assay: Drug metabolism in mouse hepatocytes after 60 mins; assay type: ADME, cell-based; details: 1 h
Hepatocyte [33] = assay: Drug metabolism in human hepatocytes after 60 mins; assay type: ADME, cell-based; details: 1 h
Plasma = assay: Drug metabolism in rat plasma at 2 mg/kg after 60 mins; assay type: ADME, organism-based; set-up: dose 2 mg/kg; details: in vivo, 1 h
Salmonella typhimurium = assay: Induction of mutagenesis in Salmonella Typhimurium by Ames test; assay type: toxicity, organism-based; details: salmonella enterica subsp. enterica serovar typhimurium
hERG (KCNH2) = hERG (KCNH2) (Homo sapiens, UniProt Q12809); assay: Inhibition of human ERG at 10 uM
Rattus norvegicus [34] = assay: Toxicity in rat non-anesthetized rat at 10 mg/kg, iv infusion administered 4 hrs for 4 consecutive days; assay type: organism-based; set-up: dose 10 mg/kg, route intravenous; details: in vivo
Rattus norvegicus [35] = assay: Toxicity in rat non-anesthetized rat at 30 mg/kg, iv infusion administered 4 hrs for 4 consecutive days; assay type: organism-based; set-up: dose 30 mg/kg, route intravenous; details: in vivo

T1 sequence (P08684 whole entry): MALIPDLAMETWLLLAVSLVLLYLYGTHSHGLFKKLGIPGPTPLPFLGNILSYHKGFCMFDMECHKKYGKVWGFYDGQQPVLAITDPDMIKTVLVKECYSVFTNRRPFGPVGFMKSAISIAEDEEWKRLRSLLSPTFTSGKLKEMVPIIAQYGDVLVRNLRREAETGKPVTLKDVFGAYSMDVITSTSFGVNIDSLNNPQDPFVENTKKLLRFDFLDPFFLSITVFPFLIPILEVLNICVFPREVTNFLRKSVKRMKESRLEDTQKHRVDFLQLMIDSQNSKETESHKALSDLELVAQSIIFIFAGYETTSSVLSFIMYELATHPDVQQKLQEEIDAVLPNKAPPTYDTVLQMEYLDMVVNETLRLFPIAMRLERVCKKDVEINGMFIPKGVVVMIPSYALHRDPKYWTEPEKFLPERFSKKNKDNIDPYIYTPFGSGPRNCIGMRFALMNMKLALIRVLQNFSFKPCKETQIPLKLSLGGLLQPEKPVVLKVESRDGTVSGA
Chain of Mitogen-activated protein kinase 14 (Q16539 whole entry): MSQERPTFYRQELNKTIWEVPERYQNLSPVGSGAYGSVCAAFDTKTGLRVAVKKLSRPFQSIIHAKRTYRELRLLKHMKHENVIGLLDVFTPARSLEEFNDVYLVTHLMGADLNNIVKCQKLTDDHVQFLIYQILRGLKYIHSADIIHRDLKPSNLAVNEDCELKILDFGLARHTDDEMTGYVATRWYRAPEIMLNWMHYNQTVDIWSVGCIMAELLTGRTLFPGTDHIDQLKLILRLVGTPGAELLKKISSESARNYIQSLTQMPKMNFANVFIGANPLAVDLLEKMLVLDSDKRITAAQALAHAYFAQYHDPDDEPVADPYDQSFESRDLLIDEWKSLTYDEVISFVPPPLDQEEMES
Chain of hERG (KCNH2) (Q12809 whole entry, the tested form may be a part): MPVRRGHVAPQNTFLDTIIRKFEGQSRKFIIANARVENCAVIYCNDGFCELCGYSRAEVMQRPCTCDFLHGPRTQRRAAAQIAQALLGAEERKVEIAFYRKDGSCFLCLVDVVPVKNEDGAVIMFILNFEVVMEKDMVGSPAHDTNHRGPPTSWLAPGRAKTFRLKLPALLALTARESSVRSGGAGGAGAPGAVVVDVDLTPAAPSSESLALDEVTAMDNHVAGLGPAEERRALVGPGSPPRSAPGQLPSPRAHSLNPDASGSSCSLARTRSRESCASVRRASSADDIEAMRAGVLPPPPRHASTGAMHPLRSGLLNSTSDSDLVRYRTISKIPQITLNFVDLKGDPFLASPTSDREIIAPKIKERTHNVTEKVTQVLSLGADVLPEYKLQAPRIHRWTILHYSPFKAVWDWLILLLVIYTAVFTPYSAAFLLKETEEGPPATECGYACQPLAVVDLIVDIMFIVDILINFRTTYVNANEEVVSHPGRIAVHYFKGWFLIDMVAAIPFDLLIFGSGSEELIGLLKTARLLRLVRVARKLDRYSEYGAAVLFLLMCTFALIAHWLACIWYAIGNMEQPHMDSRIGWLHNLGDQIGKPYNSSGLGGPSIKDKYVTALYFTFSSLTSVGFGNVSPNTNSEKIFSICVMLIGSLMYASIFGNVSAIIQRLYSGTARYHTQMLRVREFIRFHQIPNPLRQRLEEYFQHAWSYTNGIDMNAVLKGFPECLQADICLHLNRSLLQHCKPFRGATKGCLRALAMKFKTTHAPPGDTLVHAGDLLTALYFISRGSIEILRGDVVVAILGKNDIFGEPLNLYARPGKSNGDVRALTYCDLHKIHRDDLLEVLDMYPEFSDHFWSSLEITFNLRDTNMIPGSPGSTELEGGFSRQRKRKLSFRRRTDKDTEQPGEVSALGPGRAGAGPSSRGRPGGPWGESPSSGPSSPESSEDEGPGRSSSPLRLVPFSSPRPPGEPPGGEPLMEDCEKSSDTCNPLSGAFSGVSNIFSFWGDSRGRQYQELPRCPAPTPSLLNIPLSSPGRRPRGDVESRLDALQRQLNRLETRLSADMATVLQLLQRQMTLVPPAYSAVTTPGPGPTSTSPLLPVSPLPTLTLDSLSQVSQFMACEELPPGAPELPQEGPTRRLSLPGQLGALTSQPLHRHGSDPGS
Chain of Cytochrome P450 2C9 (P11712 whole entry): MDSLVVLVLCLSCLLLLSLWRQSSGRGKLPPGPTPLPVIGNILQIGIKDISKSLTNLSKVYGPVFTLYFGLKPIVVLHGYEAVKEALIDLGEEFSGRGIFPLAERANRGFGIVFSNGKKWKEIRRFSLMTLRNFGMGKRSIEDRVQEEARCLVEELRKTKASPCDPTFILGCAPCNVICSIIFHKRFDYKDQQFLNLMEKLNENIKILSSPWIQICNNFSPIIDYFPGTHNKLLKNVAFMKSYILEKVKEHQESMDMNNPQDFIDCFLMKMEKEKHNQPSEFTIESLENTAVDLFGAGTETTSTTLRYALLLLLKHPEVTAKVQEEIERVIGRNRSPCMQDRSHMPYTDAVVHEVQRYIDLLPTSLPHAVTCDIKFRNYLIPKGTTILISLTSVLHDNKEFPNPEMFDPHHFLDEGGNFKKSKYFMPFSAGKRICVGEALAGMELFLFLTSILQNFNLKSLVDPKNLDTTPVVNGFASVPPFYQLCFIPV
Chain of CYP2D6 (P10635 whole entry): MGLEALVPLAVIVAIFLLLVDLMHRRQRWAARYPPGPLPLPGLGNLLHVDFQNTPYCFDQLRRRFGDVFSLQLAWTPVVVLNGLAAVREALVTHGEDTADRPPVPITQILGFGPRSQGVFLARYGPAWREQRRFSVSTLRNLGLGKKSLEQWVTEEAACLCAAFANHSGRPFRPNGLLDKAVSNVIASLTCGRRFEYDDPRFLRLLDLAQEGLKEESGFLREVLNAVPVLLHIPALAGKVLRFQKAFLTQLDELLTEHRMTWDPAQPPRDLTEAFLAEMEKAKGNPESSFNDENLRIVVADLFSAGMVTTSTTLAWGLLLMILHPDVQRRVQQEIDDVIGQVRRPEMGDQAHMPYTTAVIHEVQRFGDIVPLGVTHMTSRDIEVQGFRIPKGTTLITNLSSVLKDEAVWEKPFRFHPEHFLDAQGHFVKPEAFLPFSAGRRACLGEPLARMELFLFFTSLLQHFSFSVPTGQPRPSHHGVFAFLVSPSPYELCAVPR
Chain of Mitogen-activated protein kinase 10 (P53779 whole entry): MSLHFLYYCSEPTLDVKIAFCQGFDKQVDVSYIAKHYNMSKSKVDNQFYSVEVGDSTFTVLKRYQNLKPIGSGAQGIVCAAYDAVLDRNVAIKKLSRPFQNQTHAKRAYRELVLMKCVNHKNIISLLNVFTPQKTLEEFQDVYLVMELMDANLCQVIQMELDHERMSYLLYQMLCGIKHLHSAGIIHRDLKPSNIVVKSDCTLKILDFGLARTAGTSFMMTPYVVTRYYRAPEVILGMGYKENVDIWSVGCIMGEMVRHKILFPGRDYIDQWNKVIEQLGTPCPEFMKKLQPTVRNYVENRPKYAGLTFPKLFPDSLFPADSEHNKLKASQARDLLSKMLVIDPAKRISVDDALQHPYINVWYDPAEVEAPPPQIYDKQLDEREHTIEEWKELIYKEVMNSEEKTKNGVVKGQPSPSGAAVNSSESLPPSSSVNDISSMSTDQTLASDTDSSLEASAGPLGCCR
Chain of Cytochrome P450 2C19 (P33261 whole entry): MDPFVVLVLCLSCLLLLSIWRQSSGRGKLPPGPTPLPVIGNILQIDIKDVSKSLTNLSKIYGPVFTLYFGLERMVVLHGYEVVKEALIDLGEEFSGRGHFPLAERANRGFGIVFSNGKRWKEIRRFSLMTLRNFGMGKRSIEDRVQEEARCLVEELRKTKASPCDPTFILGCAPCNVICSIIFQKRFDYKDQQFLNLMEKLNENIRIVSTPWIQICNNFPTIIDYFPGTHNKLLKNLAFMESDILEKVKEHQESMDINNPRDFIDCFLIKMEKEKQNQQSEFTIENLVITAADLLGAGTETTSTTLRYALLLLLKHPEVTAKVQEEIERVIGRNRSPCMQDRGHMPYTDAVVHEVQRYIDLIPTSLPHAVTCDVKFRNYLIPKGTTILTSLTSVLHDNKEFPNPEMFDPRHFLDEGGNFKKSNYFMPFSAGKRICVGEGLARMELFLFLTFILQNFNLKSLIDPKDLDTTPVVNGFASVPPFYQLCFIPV
Chain of Mitogen-activated protein kinase 9 (P45984 whole entry): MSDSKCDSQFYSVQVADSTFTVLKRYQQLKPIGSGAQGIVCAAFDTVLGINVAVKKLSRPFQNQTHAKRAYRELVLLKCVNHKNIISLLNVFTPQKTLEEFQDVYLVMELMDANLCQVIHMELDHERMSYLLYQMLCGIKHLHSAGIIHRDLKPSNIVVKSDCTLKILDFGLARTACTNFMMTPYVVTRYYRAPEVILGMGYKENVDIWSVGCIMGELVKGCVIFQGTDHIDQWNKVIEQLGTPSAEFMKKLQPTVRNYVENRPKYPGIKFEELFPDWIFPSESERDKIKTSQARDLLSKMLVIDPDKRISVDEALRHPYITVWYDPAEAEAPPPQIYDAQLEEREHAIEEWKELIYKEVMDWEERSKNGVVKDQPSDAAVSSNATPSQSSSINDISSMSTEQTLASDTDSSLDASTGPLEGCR
Chain of Mitogen-activated protein kinase 8 (P45983 whole entry): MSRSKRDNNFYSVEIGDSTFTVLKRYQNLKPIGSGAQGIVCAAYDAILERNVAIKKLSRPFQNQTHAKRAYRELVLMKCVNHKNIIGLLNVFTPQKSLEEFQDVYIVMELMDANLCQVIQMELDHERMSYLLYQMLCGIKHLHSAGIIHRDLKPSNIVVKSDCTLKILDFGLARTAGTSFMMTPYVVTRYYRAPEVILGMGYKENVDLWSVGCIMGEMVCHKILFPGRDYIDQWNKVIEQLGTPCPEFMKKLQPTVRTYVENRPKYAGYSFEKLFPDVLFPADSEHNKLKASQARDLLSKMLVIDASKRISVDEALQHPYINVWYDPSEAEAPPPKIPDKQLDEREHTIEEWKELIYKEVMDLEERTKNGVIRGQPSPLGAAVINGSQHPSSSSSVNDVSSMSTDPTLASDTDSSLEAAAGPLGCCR
Chain of CYP3A4 (P08684 whole entry): as the sequence (P08684 whole entry) above

N[C@H]1CC[C@H](Nc2ncc3nc(Nc4ccc(F)cc4F)n(C4CCCC4)c3n2)CC1
remaining at 0.5 h, 3 µM [1]: 92% | remaining at 0.5 h, 3 µM [2]: 100% | remaining at 0.5 h, 3 µM [3]: 100% | remaining at 0.5 h, 3 µM [4]: 100% | remaining at 0.5 h, 3 µM [5]: 100% | solubility thermodynamic [6]: 792 µg/mL (≈ 1850 µM) | inhibition (INH) (Cytochrome P450 3A4 [7]): Not Active | IC50 [8]: 400 nM | IC50 [9]: 270 nM | IC50 [10]: 25 nM | IC50 [11]: 24 nM | IC50 [12]: 220 nM | Vd [13]: 75 L/kg | IC50 (Rattus norvegicus [14]): 1500 nM | inhibition in vivo at 30 mg/kg (Mus musculus [15]): 41% | inhibition in vivo at 60 mg/kg (Mus musculus [16]): 98% | survival at 3 mg/kg (Rattus norvegicus [17]): 60% | half-life [18]: 17 h | clearance [19]: 83 mL/min/kg | Vd [20]: 55 L/kg | AUC [21]: 3.8 µM·h | half-life [22]: 10 h | clearance [23]: 28 mL/min/kg | Vd [24]: 30 L/kg | AUC [25]: 1.2 µM·h | Vd [26]: 11 L/kg | AUC [27]: 7 µM·h | half-life [28]: 37 h | MRT [29]: 40 h | inhibition (INH) (Cytochrome P450 1A2): Not Active | inhibition (INH) (Cytochrome P450 2C9): Not Active | inhibition (INH) (Cytochrome P450 2C19): Not Active | inhibition (INH) (Cytochrome P450 3A4 [30]): Not Active | metabolised at 0.5 h (CYP3A4): 10% | metabolised at 0.5 h (CYP2D6): 1.4% | Drug metabolism (Hepatocyte [31]): Not Active | Drug metabolism (Hepatocyte [32]): Not Active | Drug metabolism (Hepatocyte [33]): Not Active | Drug metabolism (Plasma): Not Active | Activity (Salmonella typhimurium): Non-toxic | inhibition at 10 µM (hERG (KCNH2)): 59% | Activity (Rattus norvegicus [34]): Non-toxic | Activity (Rattus norvegicus [35]): Non-toxic
